Experimental data reported in patent US20230101069A1, “AGENTS FOR USE IN THE TREATMENT OF TISSUE DAMAGE 2” (UCL BUSINESS LTD, priority 2020, published 2023).

Target: T1, CRP (Homo sapiens, UniProt P02741)
T1 sequence (P02741 19-224): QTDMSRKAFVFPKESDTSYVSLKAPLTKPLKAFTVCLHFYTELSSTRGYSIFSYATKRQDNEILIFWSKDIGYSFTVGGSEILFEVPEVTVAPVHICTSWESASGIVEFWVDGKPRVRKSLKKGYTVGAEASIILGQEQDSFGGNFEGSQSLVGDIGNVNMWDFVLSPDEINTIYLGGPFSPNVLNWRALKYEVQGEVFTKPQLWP
Test: rat acute myocardial infarction model (coronary artery ligation) with administered human CRP
Format: in vivo
Settings: ischaemia reperfusion design and terminal coronary artery ligation, Pepys, unpublished observations
Excerpt: Human CRP and activated rat complement were deposited in and around the infarct and the exacerbation of tissue damage was absolutely complement dependent. Similar observations were made in the middle cerebral artery occlusion model of stroke in rats (3).
The design of the first small molecule inhibitor of CRP binding for use in vivo, bis(phosphocholine)hexane (BPC6), enabled conclusive confirmation of the pathogenic role of human CRP in exacerbating tissue damage after ischaemic infarction (2).
BPC6 and BPC8 are avidly bound by CRP, cross linking pairs of the native pentameric protein molecules. […] However, the bis(phosphocholine)alkane series of compounds were difficult to synthesise and purify at scale.

SMILES | protective effect against human CRP pathogenicity
C[N+](C)(C)CCOP(=O)(O)OCCCCCCCCOP(=O)(O)OCC[N+](C)(C)C [Example 12, bis(phosphocholine)octane] | same protective effect

Target: T1, CRP
Test: inhibition of CRP binding in vitro
Settings: Pepys, unpublished observations

SMILES | potency as inhibitor of CRP binding in vitro, compared with BPC6
C[N+](C)(C)CCOP(=O)(O)OCCCCCCCCOP(=O)(O)OCC[N+](C)(C)C [Example 12, bis(phosphocholine)octane] | more potent inhibitor of CRP binding in vitro

Target: T1, CRP
Test: not given
Settings: rats undergoing coronary artery ligation and receiving human CRP; cited from earlier work

SMILES | increased damage caused by human CRP after coronary artery ligation
C[N+](C)(C)CCOP(=O)([O-])OCCCCCCOP(=O)([O-])OCC[N+](C)(C)C [BPC6, bis(phosphocholine)hexane] | completely abrogated the increased damage

Target: T1, CRP
Test: MIRA immunoturbidimetric assay (inhibition of CRP recognition, COBAS MIRA autoanalyser)
Format: binding
Set-up: The final concentrations were 0.73 μM native pentameric CRP; from tissue
Settings: 0.73 μM native pentameric CRP, TC buffer, 1 h at room temperature; read-out: IC50
Excerpt: The CRP immunoturbidimetric assay on the Roche COBAS MIRA Plus autoanalyser, utilises two different sized latex particles that are covalently coupled with two different monoclonal antibodies with specificity for different CRP epitopes (5). The assay was validated by Roche for measurement of native pentameric CRP, for which it has high sensitivity and specificity and a high upper detection limit; it was calibrated against a standard produced in our laboratory. Serendipitously, one of the assay's antibodies binds to an epitope present on the ligand binding B face of CRP. Thus, when the binding pocket is occupied by ligand or is occluded, for example by B face to B face complexing of pentamers, the assay fails to detect CRP although it is demonstrable by other types of assays that employ antibodies which bind to different epitopes. Bivalent compounds such as BPC8 and APL-2191 were designed to crosslink pairs of CRP pentamers. Therefore, inhibition of CRP recognition in the MIRA assay is a convenient tool to monitor the efficacy and potency of complex formation between such ligands and CRP (6).
CRP concentrations were measured in the presence and absence of ligands by the COBAS MIRA autoanalyser. Concentrated Tris-calcium buffer (×10 TC) was prepared in MilliQ water from trishydroxymethyamine (100 mM), calcium chloride (20 mM) and sodium chloride (1.4 M). The pH was adjusted to 8.0 using HCl and sodium azide was added (0.1% w/v); the buffer was stored at 4° C. A tenfold diluted working buffer (TC) was prepared by dilution 100 ml of the ×10 concentrated buffer with 900 ml of MilliQ water. Human CRP was isolated, purified and characterised as previously reported (6-9) and stored frozen at −80° C. When required, stock CRP was thawed at 37° C. and working dilutions prepared that were kept at 4° C. for the duration of an experiment. CRP concentration was determined spectrophotometrically (Beckman Coulter DU 650) in quartz cuvettes with a 1 cm light path, by measuring […] after correction for absorbance at 320 nm (light scattering) and using the measured absorption coefficient A (1%, 1 cm)=17.5 for human CRP (10). Human CRP at ˜90 μg/ml (0.78 μM of pentamer) in TC buffer was prepared from a stock solution; a 75 μl aliquot was used in the assay. Compounds were supplied by Wuxi AppTec (Wuhan, China) as solids. They were dissolved in TC buffer at suitable concentrations, depending on solubility, of up to 10 mM (labelled S1). They were then serially diluted 1:2 with TC buffer (100 μl ligand+200 μl TC) to provide up to 9 dilutions, S2-S10. A TC buffer control (50) was included in each assay. A 15 μl volume of each ligand solution was incubated with 75 μl of CRP for 1 h at room temperature. The final concentrations were 0.73 μM native pentameric CRP, ligands S1-S10=625-0.03 μM, corresponding to ligand:CRPr ratios of 850-0.04. Where compounds were of reduced solubility in TC buffer, lower stock concentrations were used (from 0.6 mM), corresponding to final top assay concentrations of 100 μM.
Data are expressed as measured CRP (mg/L) against final total ligand concentration (μM) and were plotted using Sigmaplot (V14) using the 4 parameter logistic curve y=min+(max−min)/(1+(x/EC50)[…]) to calculate EC50. Where appropriate, samples were also measured in whole normal human serum following the addition of a known amount of human CRP. All compounds were assayed in comparison with a highly purified preparation of bis(phosphocholine)octane (BPC8), that was prepared by Carbogen AMCIS AG and diluted into sterile water at 10 mM concentration. It was stored at −80° C. The solution was diluted into TC buffer as required.

SMILES | IC50 [µM]
O=C(N[C@@H](C(=O)O)C1CN2CCC1CC2)c1ccc(C(=O)N[C@@H](C(=O)O)C2CN3CCC2CC3)cc1 (stereo partly drawn) [Example 1, (R,2R,2′R)-2,2′-(terephthaloylbis(azanediyl))bis(2-((R)-quinuclidin-3-yl)acetic acid)] | 0.6
O=C(N[C@@H](C(=O)O)[C@H]1CN2CCC1CC2)c1ccc(C(=O)N[C@@H](C(=O)O)[C@H]2CN3CCC2CC3)nc1 [Example 2, (R,2R,2′R)-2,2′-((pyridine-2,5-dicarbonyl)bis(azanediyl))bis(2-((R)-quinuclidinyl)acetic acid)] | 0.65
O=C(N[C@@H](C(=O)O)[C@H]1CN2CCC1CC2)c1cnc(C(=O)N[C@@H](C(=O)O)[C@H]2CN3CCC2CC3)cn1 [Example 3, (R,2R,2′R)-2,2′-((pyrazine-2,5-dicarbonyl)bis(azanediyl))bis(2-((R)-quinuclidinyl)acetic acid)] | 1.22
O=C(N[C@@H](C(=O)O)[C@H]1CN2CCC1CC2)c1ccc(C(=O)N[C@@H](C(=O)O)[C@H]2CN3CCC2CC3)nn1 [Example 4, (R,2R,2′R)-2,2′-((pyridazine-3,6-dicarbonyl)bis(azanediyl))bis(2-((R)-quinuclidin-3-yl)acetic acid)] | 0.58
O=C(N[C@@H](C(=O)O)[C@H]1CN2CCC1CC2)c1ccc(-c2ccc(C(=O)N[C@@H](C(=O)O)[C@H]3CN4CCC3CC4)cc2)cc1 [Example 5, (R)-2-(4′-(((R)-carboxy((R)-quinuclidin-3-yl)methyl)carbamoyl)-[1,1′-biphenyl]-4-ylcarboxamido)-2-((R)-quinuclidin-3-yl)acetic acid] | 0.73
Cc1cc(C(=O)N[C@@H](C(=O)O)[C@H]2CN3CCC2CC3)ccc1-c1ccc(C(=O)N[C@@H](C(=O)O)[C@H]2CN3CCC2CC3)cc1 [Example 6, (R)-2-(4′-(((R)-carboxy((R)-quinuclidin-3-yl)methyl)carbamoyl)-2′-methyl-[1,1′-biphenyl]-4-ylcarboxamido)-2-((R)-quinuclidin-3-yl)acetic acid] | 0.56
O=C(N[C@@H](C(=O)O)[C@H]1CN2CCC1CC2)c1ccc2cc(C(=O)N[C@@H](C(=O)O)[C@H]3CN4CCC3CC4)ccc2c1 [Example 7, (R,2R,2′R)-2,2′-((naphthalene-2,6-dicarbonyl)bis(azanediyl))bis(2-((R)-quinuclidin-3-yl)acetic acid)] | 0.51
Cc1cc(C(=O)N[C@@H](C(=O)O)[C@H]2CN3CCC2CC3)c(C)cc1C(=O)N[C@@H](C(=O)O)[C@H]1CN2CCC1CC2 [Example 8] | 0.59
Cc1cc(C(=O)N[C@@H](C(=O)O)[C@H]2CN3CCC2CC3)ccc1C(=O)N[C@@H](C(=O)O)[C@H]1CN2CCC1CC2 [Example 9] | 0.55
O=C(N[C@@H](C(=O)O)[C@H]1CN2CCC1CC2)c1cc(OCc2ccccc2)c(C(=O)N[C@@H](C(=O)O)[C@H]2CN3CCC2CC3)cc1OCc1ccccc1 [Example 10] | 0.67
O=C(N[C@@H](C(=O)O)[C@H]1CN2CCC1CC2)c1cccc(C(=O)N[C@@H](C(=O)O)[C@H]2CN3CCC2CC3)c1 [Example 11, 2-[[3-[[carboxy-1(3R)-quinuclidin-3-yl]methyl]carbamoyl]benzoylamino]-2-[(3R)-quinuclidin-3-yl]acetic acid] | 2.02
C[N+](C)(C)CCOP(=O)(O)OCCCCCCCCOP(=O)(O)OCC[N+](C)(C)C [Example 12, bis(phosphocholine)octane] | 1.2

Same assay, conditions: alternative stereoisomers of the formula (I) structure; read-out: IC50 of alternative stereoisomers (QA,QA: Quinuclidine, Amino Acid)

SMILES | IC50 [µM]
O=C(NC(C(=O)O)C1CN2CCC1CC2)c1ccc(C(=O)NC(C(=O)O)C2CN3CCC2CC3)cc1 (single isomer, unassigned) [RS,RR] | > 1000
O=C(NC(C(=O)O)C1CN2CCC1CC2)c1ccc(C(=O)NC(C(=O)O)C2CN3CCC2CC3)cc1 (single isomer, unassigned) [RS,RS] | > 1000
O=C(NC(C(=O)O)C1CN2CCC1CC2)c1ccc(C(=O)NC(C(=O)O)C2CN3CCC2CC3)cc1 (single isomer, unassigned) [SR,SR] | > 1000
O=C(NC(C(=O)O)C1CN2CCC1CC2)c1ccc(C(=O)NC(C(=O)O)C2CN3CCC2CC3)cc1 (single isomer, unassigned) [SS,SS] | 34.4
